The subject of the data set is Smad1. Nature of the data set: Smad1 morpholino antisense oligonucleotide in AGEs-treated mesangial cells (Smad1 and Col4 expression). The class given is cell-based, mouse. Conditions: for AGEs-mediated overproduction (overexpression) of Col4: mesangial cells treated with AGEs; for AGEs-mediated induction of Smad1: mesangial cells, 72 hr AGEs then 16 hr with oligo. As for the experimental part: A glomerular mesangial cell strain was established from glomeruli isolated from normal, 4 week-old mice (C57BL/6JxSJL/J), and was identified according to the method previously described (S1). The mesangial cells were cultured in B medium (a 3:1 mixture of minimal essential medium/F12 modified with trace elements) supplemented with 1 mM glutamine, 100 units/ml penicillin, […] streptomycin and 20% fetal calf serum. The cultured cells fulfilled the criteria generally accepted for glomerular mesangial cells (S2). AGEs or BSA exposure was carried out as described previously (S3).
Mesangial cells were cultured in the presence of AGEs or BSA (as control) for 72 hours. Cells were harvested in sample buffer, resolved by SDS-polyacrylamide gel electrophoresis and transferred to nitro-cellulose membrane and subjected to Western blot using a 1:500 dilution of anti-Smad1 antibody and anti-pSmad1 antibody (Santa Cruz Biotechnology), followed by detection using an enhanced chemiluminescence detection system (Invitrogen, Carlsbad, Calif.).
Cultured cells were fixed in 4% paraformaldehyde. The following antibodies were used: anti-Smad1 antibody, 1:100 (Santa Cruz Biotechnology); anti-pSmad1 antibody, 1:100 (Calbiochem). An appropriate fluoresceine isothiocyanate-conjugated secondary antibody was used for visualization and imaging was done using a laser microscope and a fluorescent microscope (Olympus, Tokyo, Japan).
The antisense oligonucleotide used was a 25-nucleotide morpholino oligo (Genetools LLC, Philomath, Oreg.). The sequence is 5′-[…]-3′ (SEQ ID NO: 13). As a control, an oligo with the base composition 5′-CAtGCTcGTCACATTCAaAGCcGCT-3′ (SEQ ID NO: 18) was used. In vitro RNA transcription was performed as previously described (S7).

As for “antisense oligo to Smad1: 25-nucleotide morpholino oligo, 5′-CAAGCTGGTCACATTCATAGCGGCT-3′ (SEQ ID NO: 13) (all phosphorodiamidate morpholino (PMO))”, the “AGEs-mediated overproduction (overexpression) of Col4” value is recorded as “remarkably attenuates” and the “AGEs-mediated induction of Smad1” value is recorded as “completely abolished”.
Regarding “Smad1 mismatch oligo: control oligo 5′-CAtGCTcGTCACATTCAaAGCcGCT-3′ (SEQ ID NO: 18) (CATGCTCGTCACATTCAAAGCCGCT; listed as DNA, chemistry not given here)”, the “AGEs-mediated overproduction (overexpression) of Col4” value is “no effect” and the “AGEs-mediated induction of Smad1” value is “not”.

The values above are taken from US9359645B2, “Methods for detecting diabetic nephropathy comprising measuring the expression of Smad1” (HUBIT GENOMIX INC., priority 2003, dated 2016).
